Reference: patent publication US8258182B2, “Substituted 1,3-diphenylpropane derivatives, preparations and uses thereof” (Genfit, priority 2006, dated 2012)

Legend:
[1] = tested on: ApoE2/E2 mice; test: Plasma lipids in dyslipidemic ApoE2/E2 mice after per os treatment; type: in vivo, mouse; conditions: 3 and 10 mpk per os, 14 days, vs control animals (FIG. 2-3)
Protocol: The dyslipidemic E2/E2 mouse's rates of total cholesterol, of triglycerides, and plasma free fatty acids are measured after 8 or 14 days of a per os treatment with the compounds according to the invention.
The hypolipidemic properties of the compounds according to the invention are evaluated in vivo by assaying plasma lipids and the analysis of the PPARs target genes expression in the liver after a treatment treating of the dyslipidemic E2/E2 mice with the compounds according to the invention.
The murine model used is the ApoE2/E2 mouse, a transgenic mouse having the human apolipoprotein E isoform E2 (Sullivan P M et al., 1998). In human, this apolipoprotein, a constituent of low and very low density lipoproteins (LDL-VLDL), is present in three isoforms E2, E3, and E4. The E2 form presents a mutation affecting the amino acid in position 158, which considerably weakens the affinity of this protein for LDL receptors. Accordingly, the VLDL clearance is nearly non-existent. An accumulation of low-density lipoproteins then occurs along with a mixed hyperlipidemia known as type III (elevated cholesterol and triglycerides).
The ApoE2/E2 transgenic mice were kept on a 12 hour/12 hour light/dark cycle at a constant temperature of 20±3° C. After a one week acclimatization period, the mice were weighed and divided into groups of 6 animals selected so as to render uniform the distribution of their body weights and plasma lipid rates, determined before the experiment. The tested compounds were suspended in carboxymethylcellulose (Sigma C4888) and administered by intra-gastric tube feeding once a day for 8 days (for compound 1) or 14 days (for compound 8) with the chosen doses. […] Taking of food and weight gain are recorded throughout the experiment. […]
Plasma lipid concentrations (total cholesterol and triglycerides) are measured by enzymatic doses (bioMérieux-Lyon-France) according to the provider's recommendations.
Plasma cholesterol and triglycerides rates are measured after 8 or 14 days of a per os treatment with the compounds according to the invention. […]

[2] = tested on: PPARs target genes (PDK4, ApoCIII, ACO) in the hepatic tissue; test: Hepatic expression of PPAR target genes in E2/E2 mice (quantitative RT-PCR); type: in vivo, mouse; conditions: 3 and 10 mpk
Protocol: The effectiveness of the compounds according to the invention is also evaluated by measuring, in the hepatic tissue, the expression of genes involved in lipid and/or glucids metabolism and in energy dissipation. Each level of genes expression is normalised regarding the expression level of the reference gene 36B4's. The induction factor, i.e. the ratio between the relative signal (induced by the compound according to the invention) and the average of the relative values relating to the control group is then calculated. The higher the induction factor is, the more the compound promotes hepatic gene expression. The final result is expressed as an average of the induction values obtained with each experimental group.
The PPARα agonist properties previously measured in vitro should, in the liver, lead to an overexpression of the target genes directly under the control of the PPARα: the genes we have studied in this experiment are PDK-4 (an enzyme involved in glucid metabolism), Apo CIII (an apolipoprotein involved in lipid metabolism), and Acox1 (in mice, Acox1 corresponds to the ACO gene in humans (Acyl Co-enzymeA Oxydase, an enzyme key to the fatty acid β-oxidation mechanism)). Measuring the transcriptional activity of PPARα target genes after a treatment with compounds according to the invention does therefore allow to evaluate the hypolipidemic properties of the compounds according to the invention.
The ApoE2/E2 transgenic mice were kept on a 12 hour/12 hour light/dark cycle at a constant temperature of 20±3° C. After a one week acclimatization period, the mice were weighed and divided into groups of 6 animals selected so as to render uniform the distribution of their body weights and plasma lipid rates, determined before the experiment. The tested compounds were suspended in carboxymethylcellulose (Sigma C4888) and administered by intra-gastric tube feeding once a day for 8 days (for compound 1) or 14 days (for compound 8) with the chosen doses. The animals had free access to food and water (standard diet). Taking of food and weight gain are recorded throughout the experiment. At the end of the experiment, the animals were anesthetized after a 4 hour fast, and a blood sample was taken using (EDTA) anticoagulant, then the mice were weighed and euthanized. The plasma was separated by centrifugation at 3000 rotations/minute for 20 minutes. The samples were kept at +4° C.
Liver samples were removed, frozen in liquid nitrogen, and kept at −80° C. for later analyses.
Total RNA is extracted from liver fragments by using the NucleoSpin® 96 RNA kit (Macherey Nagel, Hoerdt, France) according to the manufacturer's instructions.
1 μg of total RNA (quantified by using the Ribogreen RNA quantification kit (Molecular Probes)) is then reverse-transcripted into complementary DNA by means of a 1 hour reaction at 37° C. in a total volume of 20 μl containing a 1× buffer (Sigma), 1.5 mM of DTT, 0.18 mM of dNTPs (Promega), 200 ng of pdN6 (Amersham), 30U of RNase inhibitor (Sigma), and 1 μl of MMLV-RT (Sigma).
The PCR quantitative experiments were carried out using the MyiQ Single-Color Real-Time PCR Detection System (Biorad, Marnes-la-Coquette, France) and were performed using the iQ SYBR Green Supermix kit according to the manufacturer's recommendations, in 96-well trays in 5 μl of a diluted reverse transcription solution at a hybridation temperature of 55° C. The specific primer pairs of the genes studied were used: • PDK4: sense primer: 5′-[…]-3′ (SEQ ID NO: 1) and antisense primer 5′-[…]-3′ (SEQ ID NO: 2)) • ApoCIII: sense primer: 5′-[…]-3′ (SEQ ID NO: 3) and antisense primer 5′-[…]-3′ (SEQ ID NO: 4). • ACO: sense primer: 5′-[…]-3′ (SEQ ID NO: 5) and antisense primer: 5′-[…]-3′ (SEQ ID NO: 6)
The quantity of fluorescencet emitted is directly proportional to the quantity of cDNA present at the beginning of the reaction and amplified during the PCR. […]

Compound: CCCOc1ccc(C(=O)CCc2cc(C)c(OC(C)(C)C(=O)O)c(C)c2)cc1 [Compound 8, 2-[2,6-dimethyl-4-[3-[4-(propyloxy)phenyl]-3-oxo-propyl]phenoxyl]-2-methylpropanoic acid]
- plasma total cholesterol rates [1]: very significantly decreased
- hepatic expression of the genes coding for PDK4 ([2]; 14 days (FIG. 2-7)): significant augmentation
- hepatic expression of the genes coding for ApoCIII ([2]; 14 days (FIG. 2-8)): reduction
- hepatic expression of the genes coding for ACO ([2]; 14 days (FIG. 2-9)): significant augmentation
